The values below come from patent US6984493B1, “Method for examining the involvement of opioid peptides in prurtis” (Toray Industries, Inc., priority 2000, dated 2006).

The structures appear in SMILES notation.

The assay has as its system severe itching. Here is the method:
One capsule of a κ-opioid agonist 17-cyclopropylmethyl-3, 14β-dihydroxy-4,5α-epoxy-6β-(N-methyl-trans-3-(3-furyl)acrylamide) morphinan hydrochloride capsule (10 μg/body) was administered to each of the selected patients. […] To quantitatively determine the severity of itching, visual analogue scale (VAS) was employed, in which the severity of itching was determined on a straight line of 0 to 100 mm where no itching was rated as “0” and the supposable most severe itching was rated as “100”.

Consider `CN(C(=O)/C=C/c1ccoc1)[C@@H]1CC[C@@]2(O)[C@H]3Cc4ccc(O)c5c4[C@@]2(CCN3CC2CC2)[C@H]1O5.Cl` (relative stereo) [17-cyclopropylmethyl-3, 14β-dihydroxy-4,5α-epoxy-6β-(N-methyl-trans-3-(3-furyl)acrylamide) morphinan hydrochloride], for which the “visual analogue scale (VAS) of severity of itching, mean of the four subjects” value (after 4 to 24 hours from the administration, one capsule 10 μg/body, four patients with severe itching, VAS 75 mm before administration, scale 0 to 100 mm) is 0 mm. The relief of itching entry (after two hours from the administration, all administered patients (four), one capsule 10 μg/body) was “itching was relieved”. In addition, the “antipruritic effect on administration (summary statement referring to Example 2)” value (as shown in Example 2) was “apparent antipruritic effect”. Also, the “duration of antipruritic effect (continued until)” value (time from the administration, all administered patients (four), one capsule 10 μg/body) worked out at 24 h.
